Experimental data taken from US20240238424A1, “HETEROBIFUNCTIONAL COMPOUNDS AND METHODS OF TREATING DISEASE” (Halda Therapeutics OpCo, Inc., priority 2021, published 2024).

Molecular target: T1, GSPT1 (Homo sapiens, UniProt P15170+Q96SW2)
T1 construct: host or cells: HEK293 LgBiT cell line
Test: GSPT1 HiBit degradation assay
Assay type: cell-based
Settings: Table 3A; HEK293 LgBiT cells expressing GSPT1_HiBiT, luminescence after 6 hours
Description: Promega developed a HEK293 cell line that constitutively expresses LgBiT protein and GSPT1_HiBiT fusion protein. When both proteins are present, the HiBiT portion of the fusion protein combines with LgBiT protein to form a functional luciferase enzyme. Endurazine, a cell permeable small molecule, is converted by cellular esterases into furimazine, which the luciferase enzyme uses as a substrate to generate luminescence. When GSPT1 is degraded, the HiBit is also degraded. This prevents formation of fully functional luciferase, leading to a loss in luminescence. GSPT1 degradation therefore correlates with a decrease in luminescence and can be measured continuously over time. The concentration of compound at which 50% GSPT1 degradation occurs (DC50) was calculated using this system.
• HEK293 LgBiT Cell line (Promega Custom) • Endurazine Substrate (Promega Cat. #N2570) • DMEM (Gibco Cat. #11995) • Penicillin/Streptomycin (Gibco Cat. #15140-122) • Heat Inactivated Fetal Bovine Serum (Gibco Cat. #A38400-01) • Hygromycin B (Gibco Cat. #10-687-010) • 384 Well TC Treated White Microplate (Perkin Elmer Cat. #6007680)
HEK293 LgBiT cells were cultured in DMEM Media supplemented with 10% FBS, 5% Pen/Strep, 200 μg/ml hygromycin and stored in an incubator set at 37° C. and 5% CO2. 18-24 hours prior to compound treatment, HEK293 LgBiT cells were seeded at 1000 cells/well in a 384-well microplate in 25 μl complete media. The plate was spun at 300 g for 30 seconds and stored in the incubator overnight. The next day, compounds were titrated in DMSO and added to media supplemented with endurazine substrate. A 25 ul aliquot of 2× compound/endurazine in media were then added to the 384-well microplate with seeded cells. (Endurazine was used at a final concentration of 0.5×). The plate was spun at 300 g for 30 seconds and stored in the incubator. After 6 hours the plate was read on a Perkin Elmer MultiMode Plate Reader Envision 2105 to measure luminescence signal.

T1 sequence (P15170 whole entry): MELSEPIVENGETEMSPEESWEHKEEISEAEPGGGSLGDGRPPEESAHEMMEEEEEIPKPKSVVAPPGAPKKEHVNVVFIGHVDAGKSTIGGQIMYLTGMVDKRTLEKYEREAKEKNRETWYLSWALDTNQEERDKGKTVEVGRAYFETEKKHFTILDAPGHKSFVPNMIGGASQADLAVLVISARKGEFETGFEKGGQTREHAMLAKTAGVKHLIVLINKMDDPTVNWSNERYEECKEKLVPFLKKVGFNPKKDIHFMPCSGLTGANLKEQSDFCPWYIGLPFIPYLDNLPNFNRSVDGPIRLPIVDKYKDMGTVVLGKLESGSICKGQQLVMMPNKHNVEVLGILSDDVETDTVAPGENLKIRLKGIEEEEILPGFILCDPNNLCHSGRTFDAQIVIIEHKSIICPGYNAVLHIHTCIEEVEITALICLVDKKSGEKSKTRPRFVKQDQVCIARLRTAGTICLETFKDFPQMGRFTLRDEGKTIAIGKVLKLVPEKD
T1 sequence (Q96SW2 whole entry): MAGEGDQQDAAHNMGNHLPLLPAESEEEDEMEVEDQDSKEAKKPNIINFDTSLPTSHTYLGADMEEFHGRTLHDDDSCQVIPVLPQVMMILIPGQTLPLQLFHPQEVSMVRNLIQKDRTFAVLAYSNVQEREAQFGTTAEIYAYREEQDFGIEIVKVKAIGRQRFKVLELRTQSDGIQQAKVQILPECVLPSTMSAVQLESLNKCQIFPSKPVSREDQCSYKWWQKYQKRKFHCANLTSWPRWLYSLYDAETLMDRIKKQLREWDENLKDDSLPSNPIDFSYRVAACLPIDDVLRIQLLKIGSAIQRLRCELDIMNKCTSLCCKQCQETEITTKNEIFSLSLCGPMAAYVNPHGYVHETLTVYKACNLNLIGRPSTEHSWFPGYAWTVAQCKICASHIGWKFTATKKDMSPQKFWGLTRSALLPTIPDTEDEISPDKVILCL
T1 sequence (Q16531 whole entry partner): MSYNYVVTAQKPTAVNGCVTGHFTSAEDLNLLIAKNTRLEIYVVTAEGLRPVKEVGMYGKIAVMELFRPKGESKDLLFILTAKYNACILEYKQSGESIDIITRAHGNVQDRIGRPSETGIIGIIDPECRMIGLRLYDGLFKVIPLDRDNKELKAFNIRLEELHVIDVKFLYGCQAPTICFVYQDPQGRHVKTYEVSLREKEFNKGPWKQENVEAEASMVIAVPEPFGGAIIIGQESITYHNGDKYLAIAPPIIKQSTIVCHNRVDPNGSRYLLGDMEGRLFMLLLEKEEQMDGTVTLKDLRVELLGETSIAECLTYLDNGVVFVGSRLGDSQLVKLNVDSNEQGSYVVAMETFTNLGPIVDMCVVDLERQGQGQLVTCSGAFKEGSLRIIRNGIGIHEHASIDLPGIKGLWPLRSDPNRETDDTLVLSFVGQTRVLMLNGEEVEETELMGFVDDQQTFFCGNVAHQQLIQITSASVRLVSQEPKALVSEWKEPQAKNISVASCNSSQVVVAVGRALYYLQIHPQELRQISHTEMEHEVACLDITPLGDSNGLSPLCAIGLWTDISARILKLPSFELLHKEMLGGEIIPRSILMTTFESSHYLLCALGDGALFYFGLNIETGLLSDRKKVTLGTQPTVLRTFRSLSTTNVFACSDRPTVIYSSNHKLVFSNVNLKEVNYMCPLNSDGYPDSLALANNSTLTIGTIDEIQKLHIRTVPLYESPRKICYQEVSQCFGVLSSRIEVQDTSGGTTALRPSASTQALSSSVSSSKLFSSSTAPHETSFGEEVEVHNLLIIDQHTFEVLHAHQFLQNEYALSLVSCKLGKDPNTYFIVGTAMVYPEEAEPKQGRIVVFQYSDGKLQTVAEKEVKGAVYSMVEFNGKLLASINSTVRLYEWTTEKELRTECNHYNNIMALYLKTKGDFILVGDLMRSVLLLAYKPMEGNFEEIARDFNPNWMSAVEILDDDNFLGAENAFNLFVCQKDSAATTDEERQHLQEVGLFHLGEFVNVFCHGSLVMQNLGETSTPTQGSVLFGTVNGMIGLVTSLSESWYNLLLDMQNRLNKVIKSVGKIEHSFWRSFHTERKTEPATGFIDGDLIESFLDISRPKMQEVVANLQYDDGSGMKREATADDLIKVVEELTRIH

| Compound | DC50 |
| --- | --- |
| C=C(F)C(=O)N1CCN(c2nc(OC[C@@H]3CCCN3CCCOCCOCCOCCOCCOCCOCCOCCOCCCCCCCCc3cc(Cl)cc(NC(=O)NCc4ccc5c(c4)CN(C4CCC(=O)NC4=O)C5=O)c3)nc3c2CCN(c2cccc4cccc(Cl)c24)C3)C[C@@H]1CC#N (some centres unmarked) [Compound I-78] | < 250 nM |
| C=C(F)C(=O)N1CCN(c2nc(OC[C@@H]3CCCN3CCCOCCOCCOCCOCCOCCOCCOCCOCCOCCOCCCCCCCCc3cc(Cl)cc(NC(=O)NCc4ccc5c(c4)CN(C4CCC(=O)NC4=O)C5=O)c3)nc3c2CCN(c2cccc4cccc(Cl)c24)C3)C[C@@H]1CC#N (some centres unmarked) [Compound I-80] | 250 to 5000 nM |
| CN(C/C=C/C(=O)N1CCN(c2nc(OC[C@@H]3CCCN3C)nc3c2CCN(c2cccc4cccc(Cl)c24)C3)C[C@@H]1CC#N)CCOCCOCCOCCOCCCCCCCCc1cc(Cl)cc(NC(=O)NCc2ccc3c(c2)CN(C2CCC(=O)NC2=O)C3=O)c1 (some centres unmarked) [Compound I-81] | < 250 nM |
| Nc1ncnc2c1c(-c1ccc(Oc3ccccc3)cc1)nn2[C@@H]1CCCN(C(=O)/C=C/COCCOCCOCCOCCOCCCCCCCCc2cc(Cl)cc(NC(=O)NCc3ccc4c(c3)CN(C3CCC(=O)NC3=O)C4=O)c2)C1 (some centres unmarked) [Compound I-82] | < 250 nM |
| CN(C/C=C/C(=O)N1CCC[C@@H](n2nc(-c3ccc(Oc4ccccc4)cc3)c3c(N)ncnc32)C1)CCOCCOCCOCCOCCOCCOCCOCCOCCOCCOCCCCCCCCc1cc(Cl)cc(NC(=O)NCc2ccc3c(c2)CN(C2CCC(=O)NC2=O)C3=O)c1 (some centres unmarked) [Compound I-83] | 250 to 5000 nM |
| CN(C/C=C/C(=O)N1CCN(c2nc(OC[C@@H]3CCCN3C)nc3c2CCN(c2cccc4cccc(Cl)c24)C3)C[C@@H]1CC#N)CCOCCOCCOCCOCCOCCOCCCCCCCCc1cc(Cl)cc(NC(=O)NCc2ccc3c(c2)CN(C2CCC(=O)NC2=O)C3=O)c1 (some centres unmarked) [Compound I-84] | < 250 nM |
| Nc1ncnc2c1c(-c1ccc(Oc3ccccc3)cc1)nn2[C@@H]1CCCN(C(=O)/C=C/COCCOCCOCCOCCOCCOCCOCCCCCCCCc2cc(Cl)cc(NC(=O)NCc3ccc4c(c3)CN(C3CCC(=O)NC3=O)C4=O)c2)C1 (some centres unmarked) [Compound I-85] | < 250 nM |
| CN(C/C=C/C(=O)N1CCN(c2nc(OC[C@H]3CCCN3C)nc3c2CCN(c2cccc4cccc(Cl)c24)C3)C[C@@H]1CC#N)CCOCCOCCOCCOCCOCCOCCOCCOCCCCCCCCc1cc(Cl)cc(NC(=O)NCc2ccc3c(c2)CN(C2CCC(=O)NC2=O)C3=O)c1 (some centres unmarked) [Compound I-86] | 250 to 5000 nM |
| CN(C/C=C/C(=O)N1CCN(c2nc(OC[C@@H]3CCCN3C)nc3c2CCN(c2cccc4cccc(Cl)c24)C3)C[C@@H]1CC#N)CCOCCOCCOCCOCCOCCOCCOCCOCCOCCOCCCCCCCCc1cc(Cl)cc(NC(=O)NCc2ccc3c(c2)CN(C2CCC(=O)NC2=O)C3=O)c1 (some centres unmarked) [Compound I-87] | 250 to 5000 nM |
| CN(C/C=C/C(=O)N1CCN(c2nc(OC[C@@H]3CCCN3C)nc3c2CCN(c2cccc4cccc(Cl)c24)C3)C[C@@H]1CC#N)CCOCCOCCOCCOCCOCCOCCOCCOCCOCCOCCOCCOCCCCCCCCc1cc(Cl)cc(NC(=O)NCc2ccc3c(c2)CN(C2CCC(=O)NC2=O)C3=O)c1 (some centres unmarked) [Compound I-88] | 250 to 5000 nM |
| Nc1ncnc2c1c(-c1ccc(Oc3ccccc3)cc1)nn2[C@@H]1CCCN(C(=O)/C=C/COCCOCCOCCOCCOCCOCCOCCOCCOCCCCCCCCc2cc(Cl)cc(NC(=O)NCc3ccc4c(c3)CN(C3CCC(=O)NC3=O)C4=O)c2)C1 (some centres unmarked) [Compound I-93] | < 250 nM |
| Nc1ncnc2c1c(-c1ccc(Oc3ccccc3)cc1)nn2[C@@H]1CCCN(C(=O)/C=C/COCCOCCOCCOCCOCCOCCOCCOCCOCCOCCOCCCCCCCCc2cc(Cl)cc(NC(=O)NCc3ccc4c(c3)CN(C3CCC(=O)NC3=O)C4=O)c2)C1 (some centres unmarked) [Compound I-94] | 250 to 5000 nM |
| Cc1c(NC(=O)c2ccc(C3CC3)cc2F)cc(F)cc1-c1ncnc(N)c1OCCN(C)C(=O)/C=C/CN(C)CCOCCOCCOCCOCCCCCCCCc1cc(Cl)cc(NC(=O)NCc2ccc3c(c2)CN(C2CCC(=O)NC2=O)C3=O)c1 (centres unmarked) [Compound I-96] | < 250 nM |
| Cc1c(NC(=O)c2ccc(C3CC3)cc2F)cc(F)cc1-c1ncnc(N)c1OCCN(C)C(=O)/C=C/CN(C)CCOCCOCCOCCOCCOCCOCCCCCCCCc1cc(Cl)cc(NC(=O)NCc2ccc3c(c2)CN(C2CCC(=O)NC2=O)C3=O)c1 (centres unmarked) [Compound I-97] | < 250 nM |
